Source: US20260297542A1, “HERBICIDE RESISTANT PLANTS” (SYNGENTA CROP PROTECTION AG, priority 2023, published 2026)
Several values for one entry are separate records, joined by “and”; a condition that tells them apart may be missing. Equal values may be shown once. Read-outs that look alike come from different tables or passages of the source.

Columns and labels:
[1] = target: T1, His-TEV-AtPP01 ΔcTP (SEQ ID NO: 370) (Arabidopsis thaliana, UniProt P55826); experiment: PPO fluorescence IC50 assay, partially purified enzyme; type: biochemical
T1 construct: with cTPs removed; made in house; host or cells: E. coli BL21 (DE3), His GraviTrap, partially purified
T1 sequence (P55826 with tags, fused parts or gaps): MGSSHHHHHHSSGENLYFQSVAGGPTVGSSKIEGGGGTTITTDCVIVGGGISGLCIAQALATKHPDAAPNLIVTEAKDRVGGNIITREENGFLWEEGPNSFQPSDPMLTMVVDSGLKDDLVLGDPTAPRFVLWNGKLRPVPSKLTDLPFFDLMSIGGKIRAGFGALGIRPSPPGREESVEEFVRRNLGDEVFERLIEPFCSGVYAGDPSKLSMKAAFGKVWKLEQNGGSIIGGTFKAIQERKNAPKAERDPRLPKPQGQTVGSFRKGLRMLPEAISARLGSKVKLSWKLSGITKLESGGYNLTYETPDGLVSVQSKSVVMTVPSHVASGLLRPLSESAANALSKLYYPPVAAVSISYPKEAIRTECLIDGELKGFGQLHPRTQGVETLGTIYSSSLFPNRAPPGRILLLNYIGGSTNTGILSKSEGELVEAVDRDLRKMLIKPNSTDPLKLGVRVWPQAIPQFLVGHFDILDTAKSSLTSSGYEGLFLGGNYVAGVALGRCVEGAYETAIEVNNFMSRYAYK
Description: A pET24 plasmid containing a DNA sequence encoding variants of AtPPO1 derived from Arabidopsis thaliana with cTPs removed and both a 6×His tag and TEV protease cleavage tag added at the N-terminus, codon-optimised for expression in E. coli, and under control of a T7 promoter, was synthesised by Twist Bioscience. The following variants were synthesised: WT AtPPO1 (SEQ ID NO: 370), AtPPO1 L479M (SEQ ID NO: 371), AtPPO1 L479N (SEQ ID NO: 372), AtPPO1 S305L Y426V (SEQ ID NO: 374) and AtPPO1 S305L Y426V L479M (SEQ ID NO: 373). This plasmid was expressed in E. coli BL21 (DE3) with 50 μg/mL kanamycin selection. 10 mL of overnight cultures grown at 37° C. were used to inoculate 1 L AIM (AIM-Terrific Broth Base including Trace elements, Formedium) in 2 L shake flasks. Cultures were grown at 37° C., 200 rpm for 3 hours and then overnight at 26° C. Cells were harvested centrifugation. 5-15 g of cell pellet was lysed in and resuspended in ratio of 1:1.5 in lysis buffer (20 mM Tris pH8, 500 mM sodium chloride, 10% glycerol, 1× complete Protease EDTA-free Inhibitor Tablet (Roche), 10 mM imidazole). The resuspension was sonicated at 75% using 10 cycles of 30 seconds, 40 seconds off. After sonication Triton X-100 was added to the lysates at a final concentration of 0.5%. The lysates were centrifuged at 20,000 rpm for 25 min at 4° C. Cleared lysates were loaded on His GraviTrap (Cytiva) columns, washed with 20 mL of lysis buffer and eluted in elution buffer (20 mM Tris pH8, 500 mM sodium chloride, 10% glycerol, 200 mM imidazole, 0.03% (v/v) Triton X-100). The eluate was desalted on a PD10 column and 2.5-3.2 mL was collected. Protein concentration was measured and calculated using the absorbance at 280 nm. Extracts were diluted 1 in 4 and 10 uL was analysed by SDS PAGE.
Partially purified Protoporphyrinogen Oxidase enzymes were assayed for activity using fluorescence adapted from the method of Shepherd & Dailey (Anal Biochem. 2005 344(1) 115-121). The assay was performed in black 384 well plates with a clear bottom and the total volume of the reaction mixture was 91 ul. The final assay mixture contained 100 mM K2HPO4 pH7.2, 1 mM Na2EDTA, 5 mM DTT, 20% glycerol (v/v), 0.05% Tween 20 (v/v), 1.1% DMSO (v/v), 1 uM protoporphyrinogen IX and 1.5 nM enzyme. Compounds were dissolved in DMSO at 1 mM and a 4-fold serial dilution carried out to give 8 rates. 1 ul was added to the assay mixture. This gave final compound concentrations of 11, 2.7, 0.69, 0.17, 0.04, 0.01, 0.002, 0.0007 uM. Enzyme and inhibitor were preincubated for 5 minutes prior to starting the reaction with the addition of the substrate. […] IC50s were calculated using GraphPad Prism 7.05 nonlinear regression (Table 6). Each compound was tested in duplicate.

[2] = tested on: tobacco plants containing pBin TMV AtPPO1; experiment: herbicide damage to transgenic tobacco; type: in vivo; details: 120 g ai/ha, per transgenic event, 0 no visible damage, 100 complete death
Description: Populations of transgenic tobacco comprising 20-30 transgenic events per plant transformation constructs are generated as described in Example 4. These lines were clonally propagated and 1 clone per event was sprayed with PPO herbicides to confirm the herbicide resistance.
(§1) Herbicidal damage is visually assessed across the population and a herbicide damage score given at 7 and 14 days. A score of 0 indicates no visible damage or stunting whereas a score of 100 indicates a complete death of the plant. 20 transgenic events (i.e. individual transgenic plants) from each GM tobacco line are transplanted to soil 1 week prior to spraying with PPO inhibiting compounds. WT tobacco is included as a control.
as §1, with “damage was” for “damage is”, “line were” for “line are”

SMILES | IC50 [1] | other results
C#CCN(C)c1c(C#N)cnn1-c1nn2c(c1Cl)CCCC2 [Pyraclonil] | 2.5 nM | –
CCOC(=O)COc1cc(-c2nn(C)c(OC(F)F)c2Cl)c(F)cc1Cl [Pyraflufen-ethyl, pyraflufen-ethyl] | 0.6 nM | –
C#CCN1C(=O)COc2cc(F)c(N3C(=O)C4=C(CCCC4)C3=O)cc21 [Flumioxazin, flumioxazin] | 0.8 nM | –
CC(C)Oc1cc(-n2nc(C(C)(C)C)oc2=O)c(Cl)cc1Cl [Oxadiazaon] | 19 nM | –
CCOC(=O)C1(C)CC(c2cc(-n3c(=O)cc(C(F)(F)F)n(C)c3=O)c(F)cc2Cl)=NO1 (stereo not drawn) [Herbicide C, 3-(2-chloro-4-fluoro-5-(3-methyl-2,6-dioxo-4-trifluoromethyl-3,6-dihydropyrimidin-1(2H)-yl)phenyl)-5-methyl-4,5-dihydroisoxazole-5-carboxylic acid ethyl ester] | 0.7 nM | percentage of damage ([2]; 7 DAT): 100% and 95% and 94% and 97%; percentage of damage ([2]; 14 DAT): 100% and 90% and 95% and 97% and 99%
C#CCN1C(=O)C(F)(F)Oc2cc(F)c(-n3c(=O)n(C)c(=S)n(C)c3=O)cc21 [Herbicide B, trifludimoxazin] | 0.7 nM | percentage of damage ([2]; 7 DAT): 100% and 99% and 87% and 97%; percentage of damage ([2]; 14 DAT): 100% and 80% and 98% and 99%
C#CCOc1cc(-n2nc3n(c2=O)CCCC3)c(Cl)cc1Cl [Azafenadin] | 0.8 nM | –
CCOC(=O)[C@]1(C)CC(c2cc(-n3c(=O)n(C)c(=S)n(C)c3=O)c(F)cc2Cl)=NO1 [Herbicide D, ethyl (5S)-3-[2-chloro-5-(3,5-dimethyl-2,6-dioxo-4-thioxo-1,3,5-triazinan-1-yl)-4-fluoro-phenyl]-5-methyl-4H-isoxazole-5-carboxylate] | – | percentage of damage ([2]; 7 DAT): 100% and 95% and 99% and 97% and 65% and 92% and 98%; percentage of damage ([2]; 14 DAT): 100% and 95% and 99% and 75% and 97% and 96%
CS(=O)(=O)NC(=O)c1cc(Oc2ccc(C(F)(F)F)cc2Cl)ccc1[N+](=O)[O-] [Fomesafen, fomesafen] | 1.8 nM | –
C=CCOC(=O)C(C)(C)OC(=O)c1cc(-n2c(=O)cc(C(F)(F)F)n(C)c2=O)ccc1Cl [Butafenacil, butafenacil] | 0.6 nM | –
COC(=O)C(C)ON=Cc1cc(-n2c(=O)cc(C(F)(F)F)n(C)c2=O)c(F)cc1Cl (stereo not drawn) [Flufenoximacil, flufenoximacil] | – | IC50 ([1]; role: inhibitor, 1 uM protoporphyrinogen IX, <1.0 is below detection limit of assay): 0.6 nM
CCOC(=O)COc1ncccc1Oc1cc(-n2c(=O)cc(C(F)(F)F)n(C)c2=O)c(F)cc1Cl [Herbicide A, epyrifenacil] | 0.7 nM | –
CC(C)N(C)S(=O)(=O)NC(=O)c1cc(-n2c(=O)cc(C(F)(F)F)n(C)c2=O)c(F)cc1Cl [Herbicide E, saflufenacil] | 2.1 nM | –
